Test results taken from patent US20240409585A1, “MACROCYCLIC IMMUNOMODULATORS” (priority 2021, published 2024).
Bridge positions count the residues as written; N and C are the ends. Square brackets hold non-standard residues; d marks the D form. Peptide text beside a SMILES is read from it. * marks the point of attachment. ξ: configuration not given here. Bip = N[C@@H](Cc1ccc(-c2ccccc2)cc1)C(=O)O; Phe(3-OMe) = COc1cccc(C[C@H](N)C(=O)O)c1; Phe(3-Me) = Cc1cccc(C[C@H](N)C(=O)O)c1; Val(3-OH) = CC(C)(O)[C@H](N)C(=O)O; 4Pal = N[C@@H](Cc1ccncc1)C(=O)O; Cha = N[C@@H](CC1CCCCC1)C(=O)O; Cit = NC(=O)NCCC[C@H](N)C(=O)O; Ile(3ξ) = CCC(C)[C@H](N)C(=O)O; Thr(3ξ) = CC(O)[C@H](N)C(=O)O; Carboxymethyl = O=C(O)C*; NMeA = CN[C@@H](C)C(=O)O; Orn = NCCC[C@H](N)C(=O)O; Dab = NCC[C@H](N)C(=O)O; Dap = NC[C@H](N)C(=O)O; Propargyl = C#CC*

Molecular target: T1, PE-labeled human PD-L1-Ig binding to Jurkat cell line over-expressing human PD-1 (Jurkat-PD-1) (Homo sapiens, UniProt Q15116)
T1 construct: expressed in transfected cells; host or cells: Jurkat
Experiment: Jurkat-PD-1 Cell Binding High-Content Screening Assay (CBA): Method 1
Settings: Jurkat-hPD-1 cells, PE-labeled PD-L1-Ig 20 nM final; read-out: Jurkat HPDL1 PD1 IC50 (uM) (Method 1)

T1 sequence (Q15116 25-288): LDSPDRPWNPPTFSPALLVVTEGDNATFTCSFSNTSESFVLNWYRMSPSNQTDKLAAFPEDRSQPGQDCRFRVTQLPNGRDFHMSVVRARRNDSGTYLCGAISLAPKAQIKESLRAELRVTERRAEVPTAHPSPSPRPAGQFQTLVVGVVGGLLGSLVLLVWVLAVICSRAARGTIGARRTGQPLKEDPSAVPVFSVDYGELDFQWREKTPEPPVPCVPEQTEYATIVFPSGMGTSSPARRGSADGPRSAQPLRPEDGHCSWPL

IC50 [µM] | Structure (SMILES)
0.02 | CC(C)C[C@H]1NC(=O)[C@H](C)N(C)C(=O)[C@H](C(C)C)NC(=O)[C@H](Cc2ccc(-c3ccccc3)cc2)NC(=O)[C@H](C(C)C)NC(=O)[C@H](Cc2c[nH]c3ccccc23)NC(=O)[C@H](CC(=O)O)NC(=O)[C@H](Cc2ccc(O)cc2)NC(=O)[C@H](CN)NC(=O)CSC[C@@H](C(=O)N[C@@H](C)C(N)=O)NC(=O)[C@H]([C@@H](C)O)NC(=O)[C@H](C(C)C)NC(=O)[C@H](CC2CCCCC2)NC(=O)[C@H](CCN)NC1=O [Compound 1506] ({CH2CO}-[Dap]YDWV[Bip]V[NMeA][dL][Dab][Cha]VTCA-NH2; thioether N-14)
0.36 | CC(C)C[C@@H]1NC(=O)[C@H](Cc2c[nH]c3ccccc23)NC(=O)[C@H](CC(=O)O)NC(=O)[C@H](Cc2ccc(O)cc2)NC(=O)[C@H](Cc2ccccc2)NC(=O)CSC[C@@H](C(=O)N[C@@H](C)C(N)=O)NC(=O)[C@H]([C@@H](C)O)NC(=O)[C@H](CN)NC(=O)[C@H](CC(C)C)NC(=O)[C@H](CC(N)=O)NC(=O)[C@@H](C)NC(=O)[C@H](C)N(C)C(=O)[C@H](C(C)C)NC(=O)[C@H](Cc2ccc(-c3ccccc3)cc2)NC1=O [Compound 1535] ({CH2CO}-FYDWL[Bip]V[NMeA][dA]NL[Dap]TCA-NH2; thioether N-14)
0.08 | CC(C)C[C@@H]1NC(=O)[C@H](CCCN)NC(=O)[C@@H](CC(C)C)NC(=O)[C@H](C)N(C)C(=O)[C@H](CCCNC(=N)N)NC(=O)[C@H](Cc2ccc(-c3ccccc3)cc2)NC(=O)[C@H](C(C)C)NC(=O)[C@H](Cc2c[nH]c3ccccc23)NC(=O)[C@H](CC(=O)O)NC(=O)[C@H](Cc2ccc(O)cc2)NC(=O)[C@H](CC(N)=O)NC(=O)CSC[C@@H](C(=O)N[C@@H](C)C(N)=O)NC(=O)[C@H]([C@@H](C)O)NC(=O)[C@H](C(C)C)NC1=O [Compound 1128] ({CH2CO}-NYDWV[Bip]R[NMeA][dL][Orn]LVTCA-NH2; thioether N-14)
0.48 | CC(C)C[C@@H]1NC(=O)[C@H](Cc2c[nH]c3ccccc23)NC(=O)[C@H](CC(=O)O)NC(=O)[C@H](Cc2ccc(O)cc2)NC(=O)[C@H](Cc2ccccc2)NC(=O)CSC[C@@H](C(=O)N[C@@H](C)C(N)=O)NC(=O)[C@H](CO)NC(=O)[C@H](C(C)C)NC(=O)[C@H](CC(C)C)NC(=O)[C@H](CC(N)=O)NC(=O)[C@@H](CCC(=O)O)NC(=O)[C@H](C)N(C)C(=O)[C@H](C(C)C)NC(=O)[C@H](Cc2ccc(-c3ccccc3)cc2)NC1=O [Compound 1820] ({CH2CO}-FYDWL[Bip]V[NMeA][dE]NLVSCA-NH2; thioether N-14)
0.29 | CCC(C)[C@@H]1NC(=O)[C@H](Cc2ccc(-c3ccccc3)cc2)NC(=O)[C@H](Cc2cccc(C)c2)NC(=O)[C@H](Cc2c[nH]c3ccccc23)NC(=O)[C@H](CC(=O)O)NC(=O)[C@H](Cc2ccc(OCC(=O)O)cc2)NC(=O)[C@H](C(C)O)NC(=O)CSC[C@@H](C(=O)N[C@@H](CC(N)=O)C(=O)O)NC(=O)[C@H](CO)NC(=O)[C@H](C(C)C)NC(=O)[C@H](CC(C)C)NC(=O)[C@H](CCN)NC(=O)[C@@H](CC(C)C)NC(=O)[C@H](C)N(C)C1=O (stereo partly drawn) [Compound 2222] ({CH2CO}-[Thr(3ξ)]Y(Carboxymethyl)DW[Phe(3-Me)][Bip][Ile(3ξ)][NMeA][dL][Dab]LVSCN-OH; thioether N-14)
0.05 | CC(C)C[C@H]1NC(=O)[C@H](C)N(C)C(=O)[C@H](CCCNC(=N)N)NC(=O)[C@H](Cc2ccc(-c3ccccc3)cc2)NC(=O)[C@H](C(C)C)NC(=O)[C@H](Cc2c[nH]c3ccccc23)NC(=O)[C@H](CC(=O)O)NC(=O)[C@H](Cc2ccc(O)cc2)NC(=O)[C@H](Cc2ccccc2)NC(=O)CSC[C@@H](C(=O)N[C@@H](C)C(N)=O)NC(=O)[C@H]([C@@H](C)O)NC(=O)[C@H](C(C)C)NC(=O)[C@H](CC2CCCCC2)NC(=O)[C@H](CCCNC(=N)N)NC1=O [Compound 1115] ({CH2CO}-FYDWV[Bip]R[NMeA][dL]R[Cha]VTCA-NH2; thioether N-14)

Continued, compound first:

Structure (SMILES) | IC50 [µM]
C#CCOc1ccc(C[C@@H]2NC(=O)[C@H](CC(N)=O)NC(=O)CSC[C@@H](C(=O)N[C@@H](C)C(N)=O)NC(=O)[C@H]([C@@H](C)O)NC(=O)[C@H](C(C)C)NC(=O)[C@H](CC(C)C)NC(=O)[C@H](CCN)NC(=O)[C@@H](CC(C)C)NC(=O)[C@H](C)N(C)C(=O)[C@H](CCCNC(=N)N)NC(=O)[C@H](Cc3ccc(-c4ccccc4)cc3)NC(=O)[C@H](C(C)C)NC(=O)[C@H](Cc3c[nH]c4ccccc34)NC(=O)[C@H](CC(=O)O)NC2=O)cc1 [Compound 1208] ({CH2CO}-NY(Propargyl)DWV[Bip]R[NMeA][dL][Dab]LVTCA-NH2; thioether N-14) | 0.14
CC(C)C[C@@H]1NC(=O)[C@H](CCN)NC(=O)[C@@H](CC(C)C)NC(=O)[C@H](C)N(C)C(=O)[C@H](CCCNC(N)=O)NC(=O)[C@H](Cc2ccc(-c3ccccc3)cc2)NC(=O)[C@H](C(C)C)NC(=O)[C@H](Cc2c[nH]c3ccccc23)NC(=O)[C@H](CC(=O)O)NC(=O)[C@H](Cc2ccc(O)cc2)NC(=O)[C@H](CC(N)=O)NC(=O)CSC[C@@H](C(=O)N[C@@H](C)C(N)=O)NC(=O)[C@H](CCCN)NC(=O)[C@H](C(C)C)NC1=O [Compound 1232] ({CH2CO}-NYDWV[Bip][Cit][NMeA][dL][Dab]LV[Orn]CA-NH2; thioether N-14) | 0.12
CC(C)C[C@@H]1NC(=O)[C@H](CCN)NC(=O)[C@@H](CC(C)C)NC(=O)[C@H](C)N(C)C(=O)[C@H](CCCNC(N)=O)NC(=O)[C@H](Cc2ccc(-c3ccccc3)cc2)NC(=O)[C@H](C(C)C)NC(=O)[C@H](Cc2c[nH]c3ccccc23)NC(=O)[C@H](CC(=O)O)NC(=O)[C@H](Cc2ccc(O)cc2)NC(=O)[C@H](CCCCN)NC(=O)CSC[C@@H](C(=O)N[C@@H](C)C(N)=O)NC(=O)[C@H]([C@@H](C)O)NC(=O)[C@H](C(C)C)NC1=O [Compound 1348] ({CH2CO}-KYDWV[Bip][Cit][NMeA][dL][Dab]LVTCA-NH2; thioether N-14) | 0.05
CCC(C)[C@@H]1NC(=O)[C@H](Cc2ccc(-c3ccccc3)cc2)NC(=O)[C@H](CC(C)C)NC(=O)[C@H](Cc2c[nH]c3ccccc23)NC(=O)[C@H](CC(=O)O)NC(=O)[C@H](Cc2ccc(OCC(=O)O)cc2)NC(=O)[C@H](C(C)O)NC(=O)CSC[C@@H](C(=O)N[C@@H](CC(N)=O)C(=O)O)NC(=O)[C@H](CC(=O)O)NC(=O)[C@H](C(C)C)NC(=O)[C@H](CC(C)C)NC(=O)[C@H](CCN)NC(=O)[C@@H](CC(C)C)NC(=O)[C@H](C)N(C)C1=O (stereo partly drawn) [Compound 2225] ({CH2CO}-[Thr(3ξ)]Y(Carboxymethyl)DWL[Bip][Ile(3ξ)][NMeA][dL][Dab]LVDCN-OH; thioether N-14) | 0.08
CC(C)C[C@@H]1NC(=O)[C@H](Cc2c[nH]c3ccccc23)NC(=O)[C@H](CC(=O)O)NC(=O)[C@H](Cc2ccc(O)cc2)NC(=O)[C@H](Cc2cnc[nH]2)NC(=O)CSC[C@@H](C(=O)NCC(N)=O)NC(=O)[C@H](CO)NC(=O)[C@H](C(C)C)NC(=O)[C@H](CC(C)C)NC(=O)[C@H](CC(N)=O)NC(=O)[C@H](CC(N)=O)NC(=O)[C@H](C)N(C)C(=O)[C@H](C(C)C)NC(=O)[C@H](Cc2ccc(-c3ccccc3)cc2)NC1=O [Compound 1808] ({CH2CO}-HYDWL[Bip]V[NMeA]NNLVSCG-NH2; thioether N-14) | 0.86
Cc1cccc(C[C@@H]2NC(=O)[C@H](CC(=O)O)NC(=O)[C@H](Cc3ccc(O)cc3)NC(=O)[C@H](CC(N)=O)NC(=O)CSC[C@@H](C(=O)N[C@H](C)C(N)=O)NC(=O)[C@H](CCC(=O)O)NC(=O)[C@H](C(C)(C)O)NC(=O)[C@H](CC3CCCCC3)NC(=O)[C@H](CCN)NC(=O)[C@@H](CC(C)C)NC(=O)[C@H](C)N(C)C(=O)[C@H](CCCNC(N)=O)NC(=O)[C@H](Cc3ccc(-c4ccccc4)cc3)NC(=O)[C@H](C(C)(C)O)NC2=O)c1 [Compound 1712] ({CH2CO}-NYD[Phe(3-Me)][Val(3-OH)][Bip][Cit][NMeA][dL][Dab][Cha][Val(3-OH)]EC[dA]-NH2; thioether N-14) | 0.24
CC(C)C[C@@H]1NC(=O)[C@H](Cc2c[nH]c3ccccc23)NC(=O)[C@H](CC(=O)O)NC(=O)[C@H](Cc2ccncc2)NC(=O)[C@H](Cc2ccc(OCC(=O)O)cc2)NC(=O)CSC[C@@H](C(=O)N[C@@H](CC(N)=O)C(N)=O)NC(=O)[C@H]([C@@H](C)O)NC(=O)[C@H](C(C)C)NC(=O)[C@H](CC2CCCCC2)NC(=O)[C@H](CCN)NC(=O)[C@@H](CC(C)C)NC(=O)[C@H](C)N(C)C(=O)[C@H](C(C)C)NC(=O)[C@H](Cc2ccc(-c3ccccc3)cc2)NC1=O [Compound 1902] ({CH2CO}-Y(Carboxymethyl)[4Pal]DWL[Bip]V[NMeA][dL][Dab][Cha]VTCN-NH2; thioether N-14) | 0.01
CC(C)C[C@@H]1NC(=O)[C@H](Cc2c[nH]c3ccccc23)NC(=O)[C@H](CC(=O)O)NC(=O)[C@H](Cc2ccc(OCC(=O)O)cc2)NC(=O)[C@H](Cc2ccc(OCC(=O)O)cc2)NC(=O)CSC[C@@H](C(=O)NCC(N)=O)NC(=O)[C@H](CO)NC(=O)[C@H](C(C)C)NC(=O)[C@H](CC(C)C)NC(=O)[C@H](CC(N)=O)NC(=O)[C@@H](CC(C)C)NC(=O)[C@H](C)N(C)C(=O)[C@H](C(C)C)NC(=O)[C@H](Cc2ccc(-c3ccccc3)cc2)NC1=O [Compound 1550] ({CH2CO}-Y(Carboxymethyl)Y(Carboxymethyl)DWL[Bip]V[NMeA][dL]NLVSCG-NH2; thioether N-14) | 0.01
COc1cccc(C[C@@H]2NC(=O)[C@H](CC(=O)O)NC(=O)[C@H](Cc3ccc(O)cc3)NC(=O)[C@H](CC(N)=O)NC(=O)CSC[C@@H](C(=O)N[C@@H](C)C(N)=O)NC(=O)[C@H]([C@@H](C)O)NC(=O)[C@H](C(C)C)NC(=O)[C@H](CC(C)C)NC(=O)[C@H](CCCNC(=N)N)NC(=O)[C@@H](CC(C)C)NC(=O)[C@H](C)N(C)C(=O)[C@H](C(C)C)NC(=O)[C@H](Cc3ccc(-c4ccccc4)cc3)NC(=O)[C@H](C(C)C)NC2=O)c1 [Compound 1292] ({CH2CO}-NYD[Phe(3-OMe)]V[Bip]V[NMeA][dL]RLVTCA-NH2; thioether N-14) | 0.03
